One compound from PMC5394417, “Investigating the molecular mechanism of positive and negative allosteric modulators in the calcium-sensing receptor dimer” (Scientific Reports, 2017) can be followed below.

The test has as its target T1, HA-E297A CaSR mutant (Rattus norvegicus, UniProt P48442, E297A).
T1 construct: mGluR5 signal peptide (N); expressed in transfected cells; host or cells: HEK293T
T1 sequence (P48442 20-1079 E297A): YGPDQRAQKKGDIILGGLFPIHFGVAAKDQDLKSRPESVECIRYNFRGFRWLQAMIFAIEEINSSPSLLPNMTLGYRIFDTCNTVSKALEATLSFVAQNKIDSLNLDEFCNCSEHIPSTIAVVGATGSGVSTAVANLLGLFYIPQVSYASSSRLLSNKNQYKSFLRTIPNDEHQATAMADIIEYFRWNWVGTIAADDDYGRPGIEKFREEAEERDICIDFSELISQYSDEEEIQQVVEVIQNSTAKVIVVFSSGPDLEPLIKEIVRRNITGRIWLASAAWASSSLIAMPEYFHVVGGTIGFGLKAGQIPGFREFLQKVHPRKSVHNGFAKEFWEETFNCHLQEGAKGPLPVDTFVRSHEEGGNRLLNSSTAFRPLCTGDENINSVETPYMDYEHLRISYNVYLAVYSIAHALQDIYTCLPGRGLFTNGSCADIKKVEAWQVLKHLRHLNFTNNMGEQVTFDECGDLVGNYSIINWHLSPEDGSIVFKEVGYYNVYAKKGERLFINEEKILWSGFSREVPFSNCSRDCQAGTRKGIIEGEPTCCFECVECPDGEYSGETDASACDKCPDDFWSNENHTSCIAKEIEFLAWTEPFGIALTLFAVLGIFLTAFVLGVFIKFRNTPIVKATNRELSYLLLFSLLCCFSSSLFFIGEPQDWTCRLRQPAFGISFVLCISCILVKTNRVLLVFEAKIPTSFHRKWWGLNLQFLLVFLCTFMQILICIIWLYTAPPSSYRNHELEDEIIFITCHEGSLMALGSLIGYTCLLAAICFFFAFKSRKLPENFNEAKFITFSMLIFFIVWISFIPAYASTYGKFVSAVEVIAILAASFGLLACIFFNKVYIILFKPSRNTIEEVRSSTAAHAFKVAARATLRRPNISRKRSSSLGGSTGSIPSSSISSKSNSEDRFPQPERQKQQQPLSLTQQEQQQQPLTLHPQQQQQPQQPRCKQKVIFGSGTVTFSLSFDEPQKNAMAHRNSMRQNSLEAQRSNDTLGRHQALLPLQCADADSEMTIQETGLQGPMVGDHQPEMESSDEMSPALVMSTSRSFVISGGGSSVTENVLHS
The test can be described thus: IP-One assay, HEK293T transiently transfected. It counts as cell-based.

On to `[Ca+2]` [Ca^2+], for which, where the note is “Ca^2+ alone”, the midpoint of the response, the EC50, lay at 7.36 mM and the “Hill coefficient ± S.E.M.” value is reported as 3.01 ± 0.07. Further, under “normalized to maximum response of WT CaSR”, the “Max ± S.E.M.” value worked out at 130 ± 25%.
